Laboratory results reported in ChEMBL document CHEMBL1268900, “Discovery of 2-aminoimidazopyridine adenosine A(2A) receptor antagonists” (Bioorg Med Chem Lett, 2010).

Key:
Adenosine receptor A2a [1] = biological target: Adenosine receptor A2a (Homo sapiens, UniProt P29274); experiment: Displacement of [3H]SCH58261 from human recombinant A2A receptor expressed in HEK293 cells; format: cell-based
[2] = Selectivity for human adenosine A2A receptor over adenosine A1 receptor
[3] = Metabolic stability in rat liver microsomes assessed as compound remaining after 30 mins; format: ADME, Microsome; conditions: read-out: Stability
[4] = Metabolic stability in human liver microsomes assessed as compound remaining after 30 mins; format: ADME, Microsome; conditions: read-out: Stability
Adenosine receptor A2a [5] = biological target: Adenosine receptor A2a (Rattus norvegicus, UniProt P30543); experiment: Antagonist activity at rat A2A receptor by cAMP functional assay
[6] = Plasma concentration in rat at 30 mg/kg, po after 1 hr; format: ADME, organism-based; parameters: dose 30 mg/kg, route oral
[7] = Plasma concentration in rat at 30 mg/kg, po after 4 hrs; format: ADME, organism-based; parameters: dose 30 mg/kg, route oral
[8] = Drug level in rat brain at 30 mg/kg, po after 1 hr; format: ADME, organism-based; parameters: dose 30 mg/kg, route oral; conditions: read-out: Drug uptake
[9] = Drug level in rat brain at 30 mg/kg, po after 4 hrs; format: ADME, organism-based; parameters: dose 30 mg/kg, route oral; conditions: read-out: Drug uptake
[10] = Ratio of drug level in brain to plasma of rat at 30 mg/kg, po after 1 hr; format: ADME, organism-based; parameters: dose 30 mg/kg, route oral; conditions: read-out: BPR
[11] = Ratio of drug level in brain to plasma of rat at 30 mg/kg, po after 4 hrs; format: ADME, organism-based; parameters: dose 30 mg/kg, route oral; conditions: read-out: BPR

Chain of Adenosine receptor A2a (Rattus norvegicus, UniProt P30543) (P30543 whole entry): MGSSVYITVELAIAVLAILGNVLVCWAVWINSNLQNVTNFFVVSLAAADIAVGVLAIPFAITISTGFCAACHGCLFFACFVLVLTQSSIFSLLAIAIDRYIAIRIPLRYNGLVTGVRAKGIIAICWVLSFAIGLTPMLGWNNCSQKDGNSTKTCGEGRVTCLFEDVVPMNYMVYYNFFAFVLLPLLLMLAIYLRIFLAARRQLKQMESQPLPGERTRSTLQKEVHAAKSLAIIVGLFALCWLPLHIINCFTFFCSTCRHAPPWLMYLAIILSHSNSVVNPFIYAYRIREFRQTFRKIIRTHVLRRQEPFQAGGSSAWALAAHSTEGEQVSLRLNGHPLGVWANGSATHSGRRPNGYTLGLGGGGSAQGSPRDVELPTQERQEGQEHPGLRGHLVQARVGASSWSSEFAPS
Chain of Adenosine receptor A2a (Homo sapiens, UniProt P29274) (P29274 whole entry): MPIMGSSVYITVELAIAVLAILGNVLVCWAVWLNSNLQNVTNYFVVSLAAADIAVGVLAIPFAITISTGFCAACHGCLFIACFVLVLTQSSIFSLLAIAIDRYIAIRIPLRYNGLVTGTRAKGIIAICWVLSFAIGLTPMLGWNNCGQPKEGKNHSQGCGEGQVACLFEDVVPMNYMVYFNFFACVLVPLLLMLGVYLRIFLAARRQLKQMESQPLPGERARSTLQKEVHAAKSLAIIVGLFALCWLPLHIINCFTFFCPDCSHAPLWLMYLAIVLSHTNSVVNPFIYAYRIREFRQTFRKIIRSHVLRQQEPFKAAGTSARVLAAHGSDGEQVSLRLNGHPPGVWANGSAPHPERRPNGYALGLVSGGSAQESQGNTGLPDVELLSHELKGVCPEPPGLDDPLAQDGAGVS

Compound	Ki (Adenosine receptor A2a [1])	Ratio [2]	also measured
COc1cccc(-n2c(NC(=O)c3cccc(C#N)c3)nc3cc(C(=O)N4CCCCC4)cnc32)c1	0.325 µM	2	
CCCCNC(=O)c1ccc2c(c1)nc(NC(=O)c1cccc(C#N)c1)n2CCCOC	0.048 µM		remaining at 0.5 h [3]: 38%; remaining at 0.5 h [4]: 27%
COCCCn1c(NC(=O)c2ccc(C#N)cc2)nc2cc(C(=O)NCc3cccc(OC)c3)ccc21	1.67 µM		
CCOCCn1c(NC(=O)c2cccc(C#N)c2)nc2cc(C(=O)N3CCOCC3)cnc21	3.3 µM	1.8	
COCCCn1c(NC(=O)c2cccc(C#N)c2)nc2cc(C(=O)N3CCOCC3)cnc21	0.092 µM	61	
COc1ccc(Cn2c(NC(=O)c3cccc(C#N)c3)nc3cc(C(=O)N4CCCCC4)cnc32)cc1	1.22 µM	7	
COCCCn1c(NC(=O)c2cccc(C(F)(F)F)c2)nc2cc(C(=O)NCc3cccc(OC)c3)ccc21	> 10 µM		
N#Cc1cccc(C(=O)Nc2nc3cc(C(=O)N4CCCCC4)cnc3n2CCCO)c1	0.051 µM	10	
COCCCn1c(N)nc2cc(C(=O)NCc3cccc(OC)c3)ccc21	6.77 µM		
N#Cc1cccc(C(=O)Nc2nc3cc(C(=O)N4CCCCC4)cnc3n2C2CCOCC2)c1	0.179 µM	10	
COCCCn1c(NC(=O)c2cccc(C#N)c2)nc2cc(C(=O)N(C)C)cnc21	0.123 µM		
COCCCn1c(NC(=O)c2cccc(F)c2)nc2cc(C(=O)NCc3cccc(OC)c3)ccc21	0.21 µM		
CCOCCCn1c(NC(=O)c2cccc(C#N)c2)nc2cc(C(=O)N3CCOCC3)cnc21	1.1 µM	9	
COCCCn1c(NC(=O)c2cccc(C#N)c2)nc2cc(C(N)=O)cnc21	2.43 µM		
COCCCn1c(NC(=O)c2cccc(C#N)c2)nc2cc(C(=O)NCc3cccc(OC)c3)ccc21	0.046 µM		
N#Cc1cccc(C(=O)Nc2nc3cc(C(=O)N4CCCCC4)cnc3n2Cc2cccnc2)c1	0.233 µM	4	
N#Cc1cccc(C(=O)Nc2nc3cc(C(=O)N4CCCCC4)cnc3n2Cc2ccc(F)cc2)c1	2.59 µM	3	
CCCCCn1c(NC(=O)c2cccc(C#N)c2)nc2cc(C(=O)N3CCCCC3)cnc21	0.904 µM	3	
COCCCn1c(NC(=O)c2cccc(C#N)c2)nc2cc(C(=O)N3CCCCC3)ccc21	0.048 µM		remaining at 0.5 h [3]: 16%; remaining at 0.5 h [4]: 67%
COCCCn1c(NC(=O)c2cccc(Cl)c2)nc2cc(C(=O)NCc3cccc(OC)c3)ccc21	0.439 µM		
COCCCn1c(NC(=O)c2ccccc2Cl)nc2cc(C(=O)NCc3cccc(OC)c3)ccc21	4.71 µM		
CC(C)OCCCn1c(NC(=O)c2cccc(C#N)c2)nc2cc(C(=O)N3CCOCC3)cnc21	> 10 µM		
Cn1c(NC(=O)c2cccc(C#N)c2)nc2cc(C(=O)N3CCCCC3)cnc21	0.147 µM	22	
COCCCn1c(NC(=O)c2cccc(OC)c2)nc2cc(C(=O)NCc3cccc(OC)c3)ccc21	2.38 µM		

Compounds with a lower Ki (Adenosine receptor A2a [1]), results first:

Ki (Adenosine receptor A2a [1])	Ratio [2]	Compound	also measured
0.04 µM		CCCCNC(=O)c1cnc2c(c1)nc(NC(=O)c1cccc(C#N)c1)n2CCCOC	remaining at 0.5 h [3]: 73%; remaining at 0.5 h [4]: 95%
0.039 µM	39	N#Cc1cccc(C(=O)Nc2nc3cc(C(=O)N4CCCCC4)cnc3n2Cc2ccncc2)c1	
0.037 µM	> 46	CC(=O)NCCn1c(NC(=O)c2cccc(C#N)c2)nc2cc(C(=O)N3CCCCC3)cnc21	
0.025 µM		CCN(C)C(=O)c1cnc2c(c1)nc(NC(=O)c1cccc(C#N)c1)n2CCCOC	Ki (Adenosine receptor A2a [5]): 0.024 µM; concentration at 1 h [6]: 4360 ng/mL; concentration at 4 h [7]: 2290 ng/mL; concentration at 1 h [8]: 480 ng/g; concentration at 4 h [9]: 210 ng/g; Kp at 1 h [10]: 0.11; Kp at 4 h [11]: 0.09
0.017 µM	131	COCCCn1c(NC(=O)c2cccc(C#N)c2)nc2ccc(C(=O)N3CCCCC3)cc21	remaining at 0.5 h [3]: 12%; remaining at 0.5 h [4]: 19%; Ki (Adenosine receptor A2a [5]): 0.085 µM
0.016 µM		CCN(CC)C(=O)c1cnc2c(c1)nc(NC(=O)c1cccc(C#N)c1)n2CCCOC	Ki (Adenosine receptor A2a [5]): 0.059 µM
0.013 µM		COCCCn1c(NC(=O)c2cccc(C#N)c2)nc2cc(C(=O)N(C)C(C)C)cnc21	Ki (Adenosine receptor A2a [5]): 0.012 µM
0.012 µM	80	CCN(C)C(=O)c1ccc2nc(NC(=O)c3cccc(C#N)c3)n(CCCOC)c2n1	remaining at 0.5 h [3]: 52%; remaining at 0.5 h [4]: 52%; Ki (Adenosine receptor A2a [5]): 0.023 µM; concentration at 1 h [6]: 4630 ng/mL; concentration at 4 h [7]: 2380 ng/mL; concentration at 1 h [8]: 1050 ng/g; concentration at 4 h [9]: 450 ng/g; Kp at 1 h [10]: 0.23; Kp at 4 h [11]: 0.19
0.0096 µM		COCCCn1c(NC(=O)c2cccc(C#N)c2)nc2cc(C(=O)N3CCCCC3)cnc21	remaining at 0.5 h [3]: 36%; remaining at 0.5 h [4]: 90%
0.0031 µM	183	CCN(CC)C(=O)c1ccc2nc(NC(=O)c3cccc(C#N)c3)n(CCCOC)c2c1	remaining at 0.5 h [3]: 19%; remaining at 0.5 h [4]: 36%; Ki (Adenosine receptor A2a [5]): 0.016 µM
0.0025 µM	88	COCCCn1c(NC(=O)c2cccc(C#N)c2)nc2ccc(C(=O)N(C)C(C)C)nc21	remaining at 0.5 h [3]: 14%; remaining at 0.5 h [4]: 25%; Ki (Adenosine receptor A2a [5]): 0.0043 µM
